# Experimental data from ChEMBL document CHEMBL5465560, “Selectivity Literature for EUbOPEN Chemogenomic Library” (2024).
# What was measured:
# [1] = biological target: Phosphorylase b kinase gamma catalytic chain, skeletal muscle/heart isoform (Homo sapiens) (UniProt Q16816); assay: Selectivity interaction (KinomeScan (DiscoverX)) EUB0001079a PHKG1; details: at 1 µM
# [2] = biological target: T1, Serine/threonine-protein kinase 3 (Homo sapiens) (UniProt Q13188); assay: Selectivity interaction (KinomeScan (DiscoverX)) EUB0000618a STK3; details: at 10 µM
# T1 sequence (whole entry): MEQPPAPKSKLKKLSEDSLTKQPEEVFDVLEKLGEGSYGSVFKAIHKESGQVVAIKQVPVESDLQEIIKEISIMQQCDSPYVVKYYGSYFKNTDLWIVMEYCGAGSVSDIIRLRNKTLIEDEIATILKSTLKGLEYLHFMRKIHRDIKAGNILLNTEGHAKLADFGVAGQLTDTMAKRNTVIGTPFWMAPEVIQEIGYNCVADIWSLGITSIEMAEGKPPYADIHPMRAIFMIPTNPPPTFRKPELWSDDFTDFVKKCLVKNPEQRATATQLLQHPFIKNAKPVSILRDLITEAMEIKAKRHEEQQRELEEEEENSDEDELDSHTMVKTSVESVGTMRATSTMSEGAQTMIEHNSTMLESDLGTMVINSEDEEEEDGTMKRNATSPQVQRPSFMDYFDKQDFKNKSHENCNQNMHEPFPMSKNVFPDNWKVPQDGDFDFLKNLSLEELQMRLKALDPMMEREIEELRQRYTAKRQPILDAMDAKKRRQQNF
# [3] = biological target: T2, Myotonin-protein kinase (Homo sapiens) (UniProt Q09013); assay: Selectivity interaction (KinomeScan (DiscoverX)) EUB0001619a DMPK; details: at 1 µM
# T2 sequence (whole entry): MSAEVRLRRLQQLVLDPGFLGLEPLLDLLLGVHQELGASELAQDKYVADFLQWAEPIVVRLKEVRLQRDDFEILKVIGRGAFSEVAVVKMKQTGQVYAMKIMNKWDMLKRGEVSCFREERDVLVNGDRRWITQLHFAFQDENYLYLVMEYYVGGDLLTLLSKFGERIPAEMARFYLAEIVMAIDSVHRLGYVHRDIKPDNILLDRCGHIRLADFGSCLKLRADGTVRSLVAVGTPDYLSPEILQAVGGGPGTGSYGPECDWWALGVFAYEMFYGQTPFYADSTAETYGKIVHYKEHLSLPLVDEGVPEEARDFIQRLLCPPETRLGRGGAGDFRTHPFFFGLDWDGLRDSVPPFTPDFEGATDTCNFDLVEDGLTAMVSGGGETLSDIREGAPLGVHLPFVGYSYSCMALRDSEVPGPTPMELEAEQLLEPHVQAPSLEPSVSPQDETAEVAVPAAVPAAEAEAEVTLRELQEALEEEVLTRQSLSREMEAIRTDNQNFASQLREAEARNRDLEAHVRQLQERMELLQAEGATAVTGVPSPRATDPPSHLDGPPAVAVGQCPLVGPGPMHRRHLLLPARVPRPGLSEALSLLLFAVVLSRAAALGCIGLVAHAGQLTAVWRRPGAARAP
# [4] = biological target: T3, 3-phosphoinositide-dependent protein kinase 1 (Homo sapiens) (UniProt O15530); assay: Selectivity interaction (KinomeScan (DiscoverX)) EUB0001619a PDPK1; details: at 1 µM
# T3 sequence (whole entry): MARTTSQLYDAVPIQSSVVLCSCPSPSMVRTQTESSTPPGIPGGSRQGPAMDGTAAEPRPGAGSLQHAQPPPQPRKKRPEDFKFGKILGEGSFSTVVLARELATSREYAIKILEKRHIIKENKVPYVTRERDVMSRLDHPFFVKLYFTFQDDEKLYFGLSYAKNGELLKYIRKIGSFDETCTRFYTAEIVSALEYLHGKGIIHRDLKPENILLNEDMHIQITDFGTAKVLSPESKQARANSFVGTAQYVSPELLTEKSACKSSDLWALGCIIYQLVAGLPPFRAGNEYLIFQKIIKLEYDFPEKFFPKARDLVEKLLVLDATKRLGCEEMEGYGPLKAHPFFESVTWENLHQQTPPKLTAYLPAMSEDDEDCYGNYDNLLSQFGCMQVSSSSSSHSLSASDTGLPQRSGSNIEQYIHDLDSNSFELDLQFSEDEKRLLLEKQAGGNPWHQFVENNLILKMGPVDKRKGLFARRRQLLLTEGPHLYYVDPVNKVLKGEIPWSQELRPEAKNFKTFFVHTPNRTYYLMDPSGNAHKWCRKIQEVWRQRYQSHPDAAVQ
# [5] = biological target: T4, Tyrosine-protein kinase ITK/TSK (Homo sapiens) (UniProt Q08881); assay: Selectivity interaction (Kinase panel (KiNativ target engagement assay in Jurkat cells)) EUB0001635a ITK; format: cell-based; details: at 1 µM
# T4 sequence (whole entry): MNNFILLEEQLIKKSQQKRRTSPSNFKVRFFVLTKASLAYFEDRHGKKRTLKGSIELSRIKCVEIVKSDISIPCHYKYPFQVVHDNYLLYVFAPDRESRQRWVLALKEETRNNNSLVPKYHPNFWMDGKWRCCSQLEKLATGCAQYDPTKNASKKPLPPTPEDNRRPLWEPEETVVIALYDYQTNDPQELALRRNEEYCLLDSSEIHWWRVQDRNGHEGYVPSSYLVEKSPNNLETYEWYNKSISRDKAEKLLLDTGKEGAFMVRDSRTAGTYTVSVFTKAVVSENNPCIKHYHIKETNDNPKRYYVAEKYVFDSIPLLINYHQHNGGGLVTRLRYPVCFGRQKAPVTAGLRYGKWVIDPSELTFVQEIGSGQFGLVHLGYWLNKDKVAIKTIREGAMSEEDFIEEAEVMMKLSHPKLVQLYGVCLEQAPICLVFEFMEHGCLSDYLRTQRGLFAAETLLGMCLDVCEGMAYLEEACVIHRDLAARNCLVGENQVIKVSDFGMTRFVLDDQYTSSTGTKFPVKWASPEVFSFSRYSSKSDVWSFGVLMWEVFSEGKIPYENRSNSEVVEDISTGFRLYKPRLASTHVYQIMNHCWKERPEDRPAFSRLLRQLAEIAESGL
# [6] = biological target: Casein kinase I isoform alpha (Homo sapiens, UniProt P48729); details: at 10 µM
# [7] = biological target: Ribosomal protein S6 kinase alpha-2 (Homo sapiens) (UniProt Q15349); details: at 10 µM
# [8] = biological target: Histone-lysine N-methyltransferase SETDB1 (Homo sapiens) (UniProt Q15047); assay: Selectivity interaction (PWWP, WD40, and Tudor domain panel (DSLS measurements, literature)) EUB0000270b SETDB1
# [9] = biological target: Serine/threonine-protein kinase 16 (Homo sapiens, UniProt O75716); assay: Selectivity interaction (KinomeScan (DiscoverX)) EUB0000229b STK16; details: at 10 µM
# [10] = biological target: Tyrosine-protein kinase BTK (Homo sapiens, UniProt Q06187); assay: Selectivity interaction (KinomeScan (DiscoverX)) EUB0000666a BTK; details: at 10 µM
# Chain of Tyrosine-protein kinase BTK (Q06187 whole entry): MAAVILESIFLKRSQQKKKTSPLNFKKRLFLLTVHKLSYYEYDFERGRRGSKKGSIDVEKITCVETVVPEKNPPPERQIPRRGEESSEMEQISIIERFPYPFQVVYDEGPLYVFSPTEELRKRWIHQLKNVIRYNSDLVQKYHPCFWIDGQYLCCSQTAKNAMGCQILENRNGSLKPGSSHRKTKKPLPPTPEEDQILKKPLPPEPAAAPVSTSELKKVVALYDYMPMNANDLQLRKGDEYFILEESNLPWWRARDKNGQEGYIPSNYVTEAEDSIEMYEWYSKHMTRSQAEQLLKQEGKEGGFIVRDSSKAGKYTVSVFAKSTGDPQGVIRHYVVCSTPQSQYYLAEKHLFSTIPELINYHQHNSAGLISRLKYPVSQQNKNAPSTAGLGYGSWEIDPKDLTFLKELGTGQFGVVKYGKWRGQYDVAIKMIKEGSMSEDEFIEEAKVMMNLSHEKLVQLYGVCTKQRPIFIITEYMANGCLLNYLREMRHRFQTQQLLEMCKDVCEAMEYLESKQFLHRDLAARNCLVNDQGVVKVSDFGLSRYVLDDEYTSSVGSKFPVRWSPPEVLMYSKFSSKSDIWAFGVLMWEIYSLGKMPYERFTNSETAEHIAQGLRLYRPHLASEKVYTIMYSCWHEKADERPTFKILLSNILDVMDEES
# Chain of Phosphorylase b kinase gamma catalytic chain, skeletal muscle/heart isoform (Homo sapiens) (Q16816 whole entry, looked up, canonical isoform): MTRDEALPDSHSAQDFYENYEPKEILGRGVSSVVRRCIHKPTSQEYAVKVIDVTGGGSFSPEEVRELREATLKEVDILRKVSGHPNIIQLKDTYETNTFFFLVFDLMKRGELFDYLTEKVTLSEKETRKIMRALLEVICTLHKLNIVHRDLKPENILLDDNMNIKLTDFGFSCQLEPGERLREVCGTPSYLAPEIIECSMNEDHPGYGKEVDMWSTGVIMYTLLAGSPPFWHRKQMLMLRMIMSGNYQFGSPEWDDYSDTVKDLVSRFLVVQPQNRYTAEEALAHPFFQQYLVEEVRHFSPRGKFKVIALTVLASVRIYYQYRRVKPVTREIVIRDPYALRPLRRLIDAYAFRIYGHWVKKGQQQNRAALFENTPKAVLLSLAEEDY
# Chain of Ribosomal protein S6 kinase alpha-2 (Homo sapiens) (Q15349 whole entry, the tested form may be a part): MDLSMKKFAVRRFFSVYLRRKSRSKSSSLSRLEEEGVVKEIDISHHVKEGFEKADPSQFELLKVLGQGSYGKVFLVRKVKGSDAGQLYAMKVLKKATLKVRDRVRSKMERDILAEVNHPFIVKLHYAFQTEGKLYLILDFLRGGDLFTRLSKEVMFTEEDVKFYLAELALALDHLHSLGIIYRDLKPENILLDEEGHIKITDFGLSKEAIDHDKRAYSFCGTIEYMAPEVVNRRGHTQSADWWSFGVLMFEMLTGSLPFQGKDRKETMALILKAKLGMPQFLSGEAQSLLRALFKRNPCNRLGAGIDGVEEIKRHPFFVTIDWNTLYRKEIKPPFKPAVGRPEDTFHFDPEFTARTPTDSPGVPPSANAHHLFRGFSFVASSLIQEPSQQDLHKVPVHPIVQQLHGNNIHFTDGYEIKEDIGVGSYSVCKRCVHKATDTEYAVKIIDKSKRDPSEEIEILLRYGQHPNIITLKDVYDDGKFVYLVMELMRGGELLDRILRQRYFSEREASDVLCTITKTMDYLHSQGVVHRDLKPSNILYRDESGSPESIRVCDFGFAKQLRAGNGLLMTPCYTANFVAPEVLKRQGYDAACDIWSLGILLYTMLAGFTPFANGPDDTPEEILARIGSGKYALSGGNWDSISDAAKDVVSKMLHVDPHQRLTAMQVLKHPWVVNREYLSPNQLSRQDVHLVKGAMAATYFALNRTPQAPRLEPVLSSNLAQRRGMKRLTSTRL
# Chain of Casein kinase I isoform alpha (P48729 2-337 limits assumed): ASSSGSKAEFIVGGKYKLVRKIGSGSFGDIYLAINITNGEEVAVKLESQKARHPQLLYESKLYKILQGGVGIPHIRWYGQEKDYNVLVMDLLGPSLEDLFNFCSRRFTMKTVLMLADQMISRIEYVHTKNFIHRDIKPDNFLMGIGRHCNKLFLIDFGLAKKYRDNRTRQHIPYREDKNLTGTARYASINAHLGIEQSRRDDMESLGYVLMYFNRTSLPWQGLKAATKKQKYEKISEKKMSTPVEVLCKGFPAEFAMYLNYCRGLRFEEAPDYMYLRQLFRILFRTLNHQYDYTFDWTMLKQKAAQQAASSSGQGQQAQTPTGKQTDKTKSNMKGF
# Chain of Serine/threonine-protein kinase 16 (O75716 whole entry): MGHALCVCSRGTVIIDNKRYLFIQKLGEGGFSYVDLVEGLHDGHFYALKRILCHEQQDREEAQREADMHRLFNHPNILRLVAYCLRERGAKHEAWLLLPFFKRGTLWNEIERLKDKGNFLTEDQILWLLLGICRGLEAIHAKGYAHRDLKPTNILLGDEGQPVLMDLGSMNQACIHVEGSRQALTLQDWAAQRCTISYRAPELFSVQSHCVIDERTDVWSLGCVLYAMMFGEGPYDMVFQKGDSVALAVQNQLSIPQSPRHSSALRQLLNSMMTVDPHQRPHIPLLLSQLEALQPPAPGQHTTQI
structure (smiles),measurement,setting,value
Nc1cnc(N2CCc3cc(S(=O)(=O)Nc4c(F)cc(Cl)cc4F)cc(N4CCCC4=O)c32)nc1 [TP-020n],% of control,[1],71%
O[C@H]1CC[C@H](Nc2ncc3nc(Nc4c(F)cc(F)cc4F)n([C@H]4CCOC4)c3n2)CC1,% of control,[2],73%
N#Cc1cccc(-c2c[nH]c3ncnc(N4CCOCC4)c23)c1,% of control,[3],87%
same,% of control,[4],100%
C=CC(=O)Nc1ccc(C(=O)Nc2[nH]nc3c2CN(C(=O)N[C@H](CN(C)C)c2ccccc2)C3(C)C)cc1,% of engagement,"[5]; Selectivity number of off-targets 0.0, Selectivity number of targets 233.0, Source Knowledge https://www.sciencedirect.com/science/article/pii/S2451945619300674?via%3Dihub",0.3%
same,% of engagement,[5],2.5%
Cc1cc([C@@H](C)Nc2ccccc2C(=O)O)c2nc(N3CCOCC3)cc(=O)n2c1 [AZD-6482],% of control,[6],63%
same,% of control,[7],98%
Cc1cc(CN)cc(C)c1-c1ncn(C)c1-c1cncn1C,dTagg,[8],0.9 K
COc1cc(N(C)c2ccnc3ccc(C(F)(F)F)cc23)cc(OC)c1OC,% binding,[9],90%
O=C(NOC[C@H](O)CO)c1ccc(F)c(F)c1Nc1ccc(I)cc1F,% of control,[10],87%
